From patent publication US7781459B2, “Carboxyalkoxy-substituted acyl-carboxyphenylurea derivatives and their use as medicaments” (Sanofi-Aventis Deutschland GmbH, priority 2002, dated 2010)
Where two headings read alike, the source gives them in different places.

System: glycogenolysis in primary cultures of rat hepatocytes
Assay: Inhibitory potency on glycogenolysis in primary cultures of rat hepatocytes (glucagon-induced glucose production rate)
Assay type: cell-based
Settings: Hepatocyte
Description: Analysis of Test Substances for their Inhibitory Potency on Glycogenolysis in Primary Cultures of Rat Hepatocytes
Hepatocytes were isolated from the livers of fed rats (Sprague-Dawley or Wistar, bodyweight 220-240 g) by means of a standard 2-stage perfusion first with calcium-free buffer solution followed by perfusion with collagenase-containing solution to break up the tissue assembly (Seglen et al, 1979). The cells were incubated in an incubator with 90% humidity at 37° C. and an atmosphere with 5% CO2 in air. The cultivation normally took place with Williams' medium E supplemented with 20 mM glucose, 0.1 mM fructose, 1 μM dexamethasone and 100 nM insulin. Glycogenolysis was induced by changing the culture medium to prewarmed carbogen-gassed Krebs-Henseleit bicarbonate Hepes (20 mM) buffer, pH 7.4, supplemented with 100 nM glucagon (time 0 min). The test substances were normally added at time 0 min as 100× stock solution in DMSO. The final DMSO concentration was not higher than 1% (v/v). The amount of glucose in the culture supernatant was determined after addition of glucagon in the presence and absence of test substance by removing small aliquots of the cell culture supernatant at times 0, 30, 60 and 90 min. The glucose concentration (mM) was determined by enzymatic methods in a biochemical analysis laboratory of Aventis Pharma Deutschland. The glucose production rate was found by linear regression of the glucose concentration at times 30, 60 and 90 min using the following formula:
Glucose production rate (mM/h)=mM glucose (90 min)−mM glucose (30 min).
The percent inhibition was calculated using the following formula: […]
IC50 values (IC50: the concentration (μM) of test substance which brings about a reduction of 50% in the glucose production rate) was estimated by standard curve fitting methods using the percent inhibitions obtained at relevant concentrations of test substance.

[1] = glycogenolysis induced with 100 nM glucagon, 50% reduction in glucose production rate, read-out: IC50 on hep.
[2] = comparison examples from WO 01/94300, glucagon-induced glycogenolysis, read-out: IC50 nm hep.

`O=C(O)COc1ccccc1NC(=O)NC(=O)c1ccc(F)cc1Cl` [Example 1, 2-[3-(2-Chloro-4-fluorobenzoyl)ureido]phenoxyacetic acid] gave an IC50 [1] of 1160 nM.
Molecule `O=C(O)COc1cc(C(=O)O)ccc1NC(=O)NC(=O)c1ccc(F)cc1Cl` [Example 2, 3-Carboxymethoxy-4-[3-(2-chloro-4-fluorobenzoyl)ureido]benzoic acid] has an IC50 [1] of 1460 nM.
Work on `COC(=O)CCCOc1cc(C(=O)O)ccc1NC(=O)NC(=O)c1cc(F)c(F)cc1Cl` [Example 10, 4-[3-(2-Chloro-4,5-difluorobenzoyl)ureido]-3-(3-methoxycarbonylpropoxy)benzoic acid] yielded an IC50 [1] of 106 nM.
For `CC(=O)CCCCCOc1c(Cl)cc(NC(=O)NC(=O)c2ccc(F)cc2Cl)cc1Cl` [Example No. 105 from WO 01/94300, reference compound], the IC50 [2] was 17500 nM.
In the case of `CC(=O)CCCCCOc1ccc(NC(=O)NC(=O)c2ccc(Cl)cc2Cl)c(F)c1` [Example No. 116 from WO 01/94300, reference compound], the IC50 [2] is reported as 13500 nM.
